Laboratory results from PubChem BioAssay AID248 (DTP/NCI, 2004).
“And” between values parts separate entries of the source, which are not always exact repeats. Identical values can stand only once. Toxic doses and inconclusive results are not listed. Cut-off read from the data, not from the text of the source: active = T/C of 150% or more; inactive = T/C below 125%.

System: L1210 leukemia ip in BDF1 mice, survival T/C
Test: NCI In Vivo Anticancer Drug Screen. Data for tumor model L1210 Leukemia (intraperitoneal) in B6D2F1 (BDF1) mice
Settings: endpoint: mean survival time, higher = longer survival
In short: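 Each compound was tested against a transplantable tumor grown in mice. The endpoint was survival, with treated animals benchmarked against vehicle controls as a simple ratio.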

[1] = dose: 100.0 mg/kg/injection, schedule: Q01DX001 (ip), vehicle: other
[2] = dose: 200.0 mg/kg/injection, schedule: Q01DX001 (ip), vehicle: other
[3] = dose: 400.0 mg/kg/injection, schedule: Q01DX001 (ip), vehicle: other
[4] = dose: 100.0 mg/kg/injection, schedule: Q01DX001 (ip), vehicle: carboxymethylcellulose (CMC)
[5] = dose: 400.0 mg/kg/injection, schedule: Q01DX001 (ip), vehicle: carboxymethylcellulose (CMC)
[6] = dose: 100.0 mg/kg/injection, schedule: Q01DX001 (ip), vehicle: saline
[7] = dose: 100.0 mg/kg/injection, schedule: Q04DX003 (ip), vehicle: saline
[8] = dose: 200.0 mg/kg/injection, schedule: Q01DX001 (ip), vehicle: saline
[9] = dose: 200.0 mg/kg/injection, schedule: Q04DX003 (ip), vehicle: saline
[10] = dose: 400.0 mg/kg/injection, schedule: Q01DX001 (ip), vehicle: saline
[11] = dose: 100.0 mg/kg/injection, schedule: Q01DX009 (ip), vehicle: Klucel (hydroxypropylcellulose) (HPC)
[12] = dose: 100.0 mg/kg/injection, schedule: Q01DX009 (ip), vehicle: saline with Tween-80
[13] = dose: 100.0 mg/kg/injection, schedule: Q04DX003 (ip), vehicle: Klucel (hydroxypropylcellulose) (HPC)
[14] = dose: 100.0 mg/kg/injection, schedule: Q04DX003 (ip), vehicle: saline with Tween-80
[15] = dose: 200.0 mg/kg/injection, schedule: Q01DX009 (ip), vehicle: Klucel (hydroxypropylcellulose) (HPC)
[16] = dose: 200.0 mg/kg/injection, schedule: Q01DX009 (ip), vehicle: saline with Tween-80
[17] = dose: 200.0 mg/kg/injection, schedule: Q04DX003 (ip), vehicle: Klucel (hydroxypropylcellulose) (HPC)
[18] = dose: 200.0 mg/kg/injection, schedule: Q04DX003 (ip), vehicle: saline with Tween-80
[19] = dose: 400.0 mg/kg/injection, schedule: Q01DX009 (ip), vehicle: Klucel (hydroxypropylcellulose) (HPC)
[20] = dose: 400.0 mg/kg/injection, schedule: Q01DX009 (ip), vehicle: saline with Tween-80
[21] = dose: 400.0 mg/kg/injection, schedule: Q04DX003 (ip), vehicle: Klucel (hydroxypropylcellulose) (HPC)
[22] = dose: 400.0 mg/kg/injection, schedule: Q04DX003 (ip), vehicle: saline with Tween-80
[23] = dose: 200.0 mg/kg/injection, schedule: Q01DX001 (ip), vehicle: carboxymethylcellulose (CMC)
[24] = dose: 100.0 mg/kg/injection, schedule: Q04DX002 (ip), vehicle: Klucel (hydroxypropylcellulose) (HPC)
[25] = dose: 10.0 mg/kg/injection, schedule: Q01DX001 (ip), vehicle: saline

Measured: T/C

CC(=O)O[C@H]1CC[C@H]2[C@@H]3CC[C@H]4C[C@@H]5[C@H](C[C@]4(C)[C@H]3CC[C@]12C)C5(F)F
inactive: dose: 50.0 mg/kg/injection, schedule: Q01DX001 (sc), vehicle: steriod suspending solution 102 % of control | dose: 50.0 mg/kg/injection, schedule: Q01DX009 (sc), vehicle: steriod suspending solution 103 % of control | dose: 100.0 mg/kg/injection, schedule: Q01DX001 (sc), vehicle: steriod suspending solution 101 % of control | dose: 100.0 mg/kg/injection, schedule: Q01DX009 (sc), vehicle: steriod suspending solution 105 % of control | dose: 200.0 mg/kg/injection, schedule: Q01DX001 (sc), vehicle: steriod suspending solution 98 % of control | dose: 200.0 mg/kg/injection, schedule: Q01DX009 (sc), vehicle: steriod suspending solution 102 % of control | dose: 400.0 mg/kg/injection, schedule: Q01DX001 (sc), vehicle: steriod suspending solution 101 % of control | dose: 400.0 mg/kg/injection, schedule: Q01DX009 (sc), vehicle: steriod suspending solution 102 % of control

O=C(CC(=O)c1cccnc1)NC(=O)c1ccccc1
inactive: [1] 96 % of control | [2] 86 % of control | [3] 89 % of control

Cc1cc2oc(=O)c3c(c2c(O)c1CN1CCOCC1)CCCC3
inactive: [4] 96 % of control | [5] 98 % of control

S=c1ssc2ccccc12
inactive: dose: 50.0 mg/kg/injection, schedule: Q04DX003 (ip), vehicle: saline 100 % of control | [6] 94 % of control and 96 % of control | [7] 97 % of control | [8] 94 % of control and 101 % of control | [9] 97 % of control | [10] 98 % of control

c1ccc(N(c2ccccc2)c2ccccc2)cc1
inactive: [11] 102 % of control | [12] 93 % of control | [13] 91 % of control | [14] 100 % of control | [15] 91 % of control | [16] 95 % of control | [17] 95 % of control | [18] 96 % of control | [19] 98 % of control | [20] 95 % of control | [21] 98 % of control | [22] 90 % of control

CC(C)C(=O)OCP(=O)(COC(=O)C(C)C)COC(=O)C(C)C
inactive: [14] 92 % of control | [18] 97 % of control | [22] 93 % of control

CN(C)P(=O)(Nc1ccc(Cl)cc1)Nc1ccc(Cl)cc1
inactive: [13] 94 % of control | [17] 96 % of control | [21] 100 % of control

COc1ccc(NC(=O)C(Cl)Cl)cc1NC(C)=O
inactive: [4] 96 % of control | [23] 108 % of control | [5] 91 % of control

CC(=O)NC1C(NC(=O)C(CC(=O)O)NC(=O)OCc2ccccc2)OC(COC(C)=O)C(OC(C)=O)C1OC(C)=O (stereo not drawn)
inactive: dose: 50.0 mg/kg/injection, schedule: Q04DX002 (ip), vehicle: Klucel (hydroxypropylcellulose) (HPC) 94 % of control | [24] 91 % of control

Cc1c(C(=O)NN)sc2ccccc12
inactive: dose: 5.0 mg/kg/injection, schedule: Q01DX001 (ip), vehicle: saline 100 % of control | [25] 97 % of control | dose: 20.0 mg/kg/injection, schedule: Q01DX001 (ip), vehicle: saline 100 % of control | dose: 40.0 mg/kg/injection, schedule: Q01DX001 (ip), vehicle: saline 97 % of control | dose: 80.0 mg/kg/injection, schedule: Q01DX001 (ip), vehicle: saline 94 % of control

COC1OC(CO)C(O)C([N+](=O)[O-])C1O (stereo not drawn)
inactive: [7] 98 % of control | [9] 102 % of control | dose: 400.0 mg/kg/injection, schedule: Q04DX003 (ip), vehicle: saline 105 % of control

CCN(CC)Cc1cc(Nc2cc(OC)cc3cccnc23)ccc1O
inactive: [25] 111 % of control | dose: 19.0 mg/kg/injection, schedule: Q01DX001 (ip), vehicle: saline 110 % of control | dose: 38.0 mg/kg/injection, schedule: Q01DX001 (ip), vehicle: saline 100 % of control

O=C(NC(=O)C1CC1)C1CC1
inactive: [12] 94 % of control | [14] 106 % of control | [16] 100 % of control | [18] 87 % of control | [20] 100 % of control | [22] 93 % of control

CC(=O)Nc1ccc(C#N)c2ccccc12
inactive: [11] 97 % of control | [13] 102 % of control | [15] 98 % of control | [17] 102 % of control | [19] 103 % of control | [21] 97 % of control

O=c1c(Br)cc(Cl)nc2c(Br)cc(Br)cc12
inactive: dose: 12.0 mg/kg/injection, schedule: Q01DX009 (ip), vehicle: Klucel (hydroxypropylcellulose) (HPC) 103 % of control | dose: 25.0 mg/kg/injection, schedule: Q01DX009 (ip), vehicle: Klucel (hydroxypropylcellulose) (HPC) 103 % of control | dose: 25.0 mg/kg/injection, schedule: Q04DX003 (ip), vehicle: Klucel (hydroxypropylcellulose) (HPC) 102 % of control | dose: 50.0 mg/kg/injection, schedule: Q01DX009 (ip), vehicle: Klucel (hydroxypropylcellulose) (HPC) 96 % of control and 89 % of control | dose: 50.0 mg/kg/injection, schedule: Q04DX003 (ip), vehicle: Klucel (hydroxypropylcellulose) (HPC) 98 % of control | [13] 93 % of control and 91 % of control

CC(=O)c1cc2c(Br)cccc2oc1=O
inactive: [6] 91 % of control | [8] 98 % of control | [10] 95 % of control

O=C(Oc1ccccc1)c1ccc2[nH]c(=O)c(C(=O)O)nc2c1
inactive: dose: 25.0 mg/kg/injection, schedule: Q01DX001 (ip), vehicle: saline with Tween-80 96 % of control | dose: 50.0 mg/kg/injection, schedule: Q01DX001 (ip), vehicle: saline with Tween-80 100 % of control | dose: 100.0 mg/kg/injection, schedule: Q01DX001 (ip), vehicle: saline with Tween-80 98 % of control

Cc1cc([N+](=O)[O-])c(N)c([N+](=O)[O-])c1
inactive: [11] 98 % of control | [13] 105 % of control | [15] 92 % of control | [17] 105 % of control | [19] 97 % of control | [21] 105 % of control

CN(C=O)c1ccc(C(=O)O)cc1
inactive: [4] 123 % of control | [23] 96 % of control | [5] 94 % of control

O=C(O)COc1ccc(Cl)c2ccccc12
inactive: [24] 96 % of control | dose: 200.0 mg/kg/injection, schedule: Q04DX002 (ip), vehicle: Klucel (hydroxypropylcellulose) (HPC) 100 % of control

COc1nn(C)c(=O)c2cccnc12
inactive: dose: 75.0 mg/kg/injection, schedule: Q01DX001 (ip), vehicle: saline 96 % of control | dose: 150.0 mg/kg/injection, schedule: Q01DX001 (ip), vehicle: saline 98 % of control

CCOC(=O)CSc1nc(N)cc(=O)[nH]1
inactive: dose: 50.0 mg/kg/injection, schedule: Q01DX001 (ip), vehicle: Klucel (hydroxypropylcellulose) (HPC) 110 % of control | dose: 100.0 mg/kg/injection, schedule: Q01DX001 (ip), vehicle: Klucel (hydroxypropylcellulose) (HPC) 117 % of control | dose: 200.0 mg/kg/injection, schedule: Q01DX001 (ip), vehicle: Klucel (hydroxypropylcellulose) (HPC) 110 % of control

CCCCOC(=O)c1nc[nH]c1[N+](=O)[O-]
inactive: [1] 93 % of control | [2] 101 % of control | [3] 101 % of control

O=C(N/N=C\c1cc(Cl)ccc1[N+](=O)[O-])c1ccco1
inactive: [2] 93 % of control

C=CCNc1ccnc(SCc2ccccc2)n1
inactive: dose: 100.0 mg/kg/injection, schedule: Q01DX009 (ip), vehicle: gum acacia 93 % of control | dose: 100.0 mg/kg/injection, schedule: Q04DX003 (ip), vehicle: gum acacia 97 % of control | dose: 200.0 mg/kg/injection, schedule: Q01DX009 (ip), vehicle: gum acacia 110 % of control | dose: 200.0 mg/kg/injection, schedule: Q04DX003 (ip), vehicle: gum acacia 97 % of control | dose: 400.0 mg/kg/injection, schedule: Q01DX009 (ip), vehicle: gum acacia 97 % of control | dose: 400.0 mg/kg/injection, schedule: Q04DX003 (ip), vehicle: gum acacia 92 % of control
